Source: patent US4493837A, “Theobromine derivatives” (Eisai Co., Ltd., priority 1979, dated 1985)

Experiments:
[1] = system: femoral artery blood flow; assay: Blood flow-increasing action (average femoral artery blood flow after intraarterial injection, relative to papaverine); type: in vivo, mongrel dogs; conditions: anesthetized dogs, dose 0.03, 0.003 or 0.0003 mg/kg, papaverine 0.03 mg/kg = 1.00
Description: The blood flow at a femoral artery is measured by each of four male and female mongrel dogs weighing from 10 to 14 kg. That is, each subject is anesthetized by injecting intravenously 30 mg/kg of pentobarbital and one side femoral artery is exposed. A probe (2.5 mm diameter) of a magnetic blood flow meter (Model MF-26, a product of Nihon-Koden K.K.) is fitted to this artery and a catheter is inserted into and fixed to a side branch of this femoral artery. Intraarterial injection of 0.1 ml of the sample is then made and the average blood flow is measured. The dose of the sample is 0.03 mg/kg. When the blood flow-increasing action is strong, the dose is made 0.003 mg/kg and when the blood flow-increasing action is even stronger, it is made 0.0003 mg/kg in order to conduct the experiments. […] The numerical values in Table 1 represent the relative values of the compounds of this invention when the height of the blood flow-increase curve obtained by administration of 0.03 mg/kg papaverine is arbitrarily assigned the value 1.00. In other words, these values represent the ratio of the efficacy of the compounds of this invention relative to the activity of papaverine, with the latter being assigned the value 1.

[2] = system: grooming behavior in mice; assay: Inhibition of grooming behavior in mice; type: in vivo; conditions: for Number of grooming responses: 20-minutes count, 10 mice
Description: The grooming behavior-inhibiting action of the compounds of the present invention was examined by the following experiments, using the method disclosed in O. Rohte; Psychopharmacologia, Vol. 14, 18-22 (1969).
In this experiment, each sample (the compounds of the present invention, and chlorpromazine and diazepam as control medicines) was prepared in a form of 5% arabic gum suspension of 0.1 ml/10 g body weight of the animal.
Forty minutes after oral administration of each sample, the oily ink was painted on each mouse. And 10 minutes later, the number of grooming responses was counted for a 20-minutes period. A 5% arabic gum solution alone was administered to the control group.

[3] = system: fighting behavior in mice; assay: Inhibition of the fighting behavior in mice; type: in vivo; conditions: for No. of fighting episodes: one hour after administration, 10 experiments
Description: The anti-fighting action was examined in the following experiment, using the method disclosed in Ralph E. Tedeshi et al, Journal of Pharmacology and Experimental Therapeutics, Vol. 125, 28-34 (1959).
A pair of mice was placed in a plastic cage (16×10×18 cm) with the grid floor and applied electrical shocks (3 mA, 5 Hz, 50 msec.) during a 3-minutes period to their feet to induce the fighting behavior between the mice.
In this experiment, each sample (the compounds of the present invention, and chlorpromazine and diazepam as control medicines) was prepared in a form of a 5% arabic gum suspension and was orally administered to the mice. One hour after oral administration, the fighting behavior was observed. A 5% arabic gum solution was administered to the control group. Ten pairs of mice were used for each dose level.

[4] = system: phenylquinone-induced writhing in mice; assay: Analgesic action: anti-writhing activity in mice (phenylquinone); type: in vivo; conditions: 4 mice
Description: The analgesic action of the compounds of the present invention was examined by the following experiment, using the writhing method disclosed in E. Siegmund et al; Proc. Soc. Exp. Biol. & Med., Vol. 95, 729 (1957).
Thirty minutes after subcutaneous injection of the compounds of the present invention, 2 mg/kg of phenylquinone was injected intraperitoneally to the mice. And 5 minutes later, the total number of writhes was counted for 4 minutes. Four mice were used for each dose level.

## COc1ccc(Cc2nccc3cc(OC)c(OC)cc23)cc1OC [Papaverine, reference compound]
[1]
  Specific activity (blood flow increase relative to papaverine = 1): 1

## COc1ccccc1N1CCN(CCCCCCn2c(=O)c3c(ncn3C)n(C)c2=O)CC1
[1]
  Specific activity (blood flow increase relative to papaverine = 1): 404

## Cn1cnc2c1c(=O)n(CCCCN1CCN(c3cccc(C(F)(F)F)c3)CC1)c(=O)n2C [drawing 17]
[2]; 0.625 mg/kg P.O.
  % Inhibition (grooming responses): 49%
  Number of grooming responses: 15.5 ± 5.8
[2]; 2.5 mg/kg P.O.
  % Inhibition (grooming responses): 46%
  Number of grooming responses: 16.5 ± 5.9
[2]; 10 mg/kg P.O.
  % Inhibition (grooming responses): 95%
  Number of grooming responses: 1.6 ± 1.6
[2]; 40 mg/kg P.O.
  % Inhibition (grooming responses): 100%
  Number of grooming responses: 0

## CN(C)CCCN1c2ccccc2Sc2ccc(Cl)cc21 [chlorpromazine, reference compound]
[2]; 0.625 mg/kg P.O.
  % Inhibition (grooming responses): 30%
  Number of grooming responses: 21.4 ± 4.3
[2]; 2.5 mg/kg P.O.
  % Inhibition (grooming responses): 91%
  Number of grooming responses: 2.9 ± 2.9
[2]; 10 mg/kg P.O.
  % Inhibition (grooming responses): 61%
  Number of grooming responses: 5.8 ± 5.8
[2]; 40 mg/kg P.O.
  % Inhibition (grooming responses): 80%
  Number of grooming responses: 5.9 ± 5.9
[3]; 0.625 mg/kg P.O.
  % Inhibition (fighting episodes): 30%
  No. of fighting episodes: 3.9 ± 0.8
[3]; 2.5 mg/kg P.O.
  % Inhibition (fighting episodes): 45%
  No. of fighting episodes: 3.1 ± 1.0

## COc1ccccc1N1CCN(CCn2c(=O)c3c(ncn3C)n(C)c2=O)CC1
[1]
  Specific activity (blood flow increase relative to papaverine = 1): 95

## Cn1cnc2c1c(=O)n(CCCCCCN1CCN(c3ccccc3Cl)CC1)c(=O)n2C
[4]; 0.25 mg/kg s.c.
  % Inhibition (writhing): 10%
[4]; 0.5 mg/kg s.c.
  % Inhibition (writhing): 70%
[4]; 1.0 mg/kg s.c.
  % Inhibition (writhing): 80%
[4]; 2.5 mg/kg s.c.
  % Inhibition (writhing): 90%
[4]; 5.0 mg/kg s.c.
  % Inhibition (writhing): 100%

## CN1C(=O)CN=C(c2ccccc2)c2cc(Cl)ccc21 [diazepam, reference compound]
[2]; 0.625 mg/kg P.O.
  % Inhibition (grooming responses): 53%
  Number of grooming responses: 14.3 ± 4.2
[2]; 2.5 mg/kg P.O.
  % Inhibition (grooming responses): 68%
  Number of grooming responses: 9.5 ± 5.2
[2]; 10 mg/kg P.O.
  % Inhibition (grooming responses): 75%
  Number of grooming responses: 7.6 ± 3.2
[3]; 0.625 mg/kg P.O.
  % Inhibition (fighting episodes): 29%
  No. of fighting episodes: 4.0 ± 1.0
[3]; 1.25 mg/kg P.O.
  % Inhibition (fighting episodes): 63%
  No. of fighting episodes: 2.1 ± 0.9

## Cn1cnc2c1c(=O)n(CCCCN1CCN(c3cccc(C(F)(F)F)c3)CC1)c(=O)n2C [drawing 19]
[3]; 0.625 mg/kg P.O.
  % Inhibition (fighting episodes): 25%
  No. of fighting episodes: 4.2 ± 0.7
[3]; 2.5 mg/kg P.O.
  % Inhibition (fighting episodes): 81%
  No. of fighting episodes: 1.0

## COc1ccccc1N1CCN(CCCCn2c(=O)c3c(ncn3C)n(C)c2=O)CC1 [drawing 18]
[2]; 0.625 mg/kg P.O.
  % Inhibition (grooming responses): 23%
  Number of grooming responses: 23.4 ± 6.1
[2]; 2.5 mg/kg P.O.
  % Inhibition (grooming responses): 49%
  Number of grooming responses: 15.6 ± 4.5
[2]; 10 mg/kg P.O.
  % Inhibition (grooming responses): 68%
  Number of grooming responses: 9.5 ± 4.1
[2]; 40 mg/kg P.O.
  % Inhibition (grooming responses): 100%
  Number of grooming responses: 0

## COc1ccccc1N1CCN(CCCCn2c(=O)c3c(ncn3C)n(C)c2=O)CC1 [drawing 20]
[3]; 0.625 mg/kg P.O.
  % Inhibition (fighting episodes): 41%
  No. of fighting episodes: 3.3 ± 0.7
[3]; 2.5 mg/kg P.O.
  % Inhibition (fighting episodes): 71%
  No. of fighting episodes: 1.6

## Cn1cnc2c1c(=O)n(CCCCCN1CCN(c3ccccc3Cl)CC1)c(=O)n2C
[4]; 1.0 mg/kg s.c.
  % Inhibition (writhing): 0%
[4]; 2.5 mg/kg s.c.
  % Inhibition (writhing): 56%
[4]; 5.0 mg/kg s.c.
  % Inhibition (writhing): 87%
[4]; 10.0 mg/kg s.c.
  % Inhibition (writhing): 100%

## COc1ccccc1N1CCN(CCCn2c(=O)c3c(ncn3C)n(C)c2=O)CC1
[1]
  Specific activity (blood flow increase relative to papaverine = 1): 143

## Cc1cccc(C)c1N1CCN(CCCCn2c(=O)c3c(ncn3C)n(C)c2=O)CC1
[4]; 2.5 mg/kg s.c.
  % Inhibition (writhing): 0%
[4]; 5.0 mg/kg s.c.
  % Inhibition (writhing): 53%
[4]; 10.0 mg/kg s.c.
  % Inhibition (writhing): 77%
[4]; 25.0 mg/kg s.c.
  % Inhibition (writhing): 85%

## Cn1cnc2c1c(=O)n(CCCCCN1CCN(c3ccccc3)CC1)c(=O)n2C
[1]
  Specific activity (blood flow increase relative to papaverine = 1): 247
